Laboratory results reported in PubChem BioAssay (NCI).
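Step 1: Grow cells in 96-well plates. Step 2: Expose to compound for 48 hours at 5 concentrations. Step 3: Interpolate endpoints linearly; if unreached, use highest concentration. TGI is the concentration that stops growth completely.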

Assays:
Assay in all cases: NCI anticancer screen, dose series, 48 h
MDA-MB-435 = system: MDA-MB-435
NCI-H522 lung = system: NCI-H522 lung
OVCAR-5 ovarian = system: OVCAR-5 ovarian
PC-3 prostate = system: PC-3 prostate
RPMI-8226 leukemia = system: RPMI-8226 leukemia
RXF 393 renal = system: RXF 393 renal
SK-MEL-28 melanoma = system: SK-MEL-28 melanoma
SNB-19 CNS = system: SNB-19 CNS
SNB-75 CNS = system: SNB-75 CNS
TK-10 renal = system: TK-10 renal
UACC-62 melanoma = system: UACC-62 melanoma

| SMILES | TGI (MDA-MB-435) | TGI (NCI-H522 lung) | TGI (OVCAR-5 ovarian) | TGI (PC-3 prostate) | TGI (RPMI-8226 leukemia) | TGI (RXF 393 renal) | TGI (SK-MEL-28 melanoma) | TGI (SNB-19 CNS) | TGI (SNB-75 CNS) | TGI (TK-10 renal) | TGI (UACC-62 melanoma) |
| --- | --- | --- | --- | --- | --- | --- | --- | --- | --- | --- | --- |
| Cc1ccccc1Nc1nc2ccccc2nc1NS(=O)(=O)c1ccccc1 | > 100 µM | > 100 µM | > 100 µM | > 100 µM | > 100 µM | > 100 µM | > 100 µM | > 100 µM | > 100 µM | > 100 µM | > 100 µM |
| COc1ccc(/C=N/NC(=S)Nc2cc(C)ccc2OC)cc1 | > 100 µM | 55.9 µM | 73 µM | > 100 µM | 27.6 µM | > 100 µM | > 100 µM | > 100 µM | > 100 µM | – | > 100 µM |
| c1cc2c(cc1[C@@H]1OC[C@@H]3[C@H]1CO[C@H]3c1ccc3c(c1)OCO3)OCO2 | > 100 µM | > 100 µM | > 100 µM | > 100 µM | > 100 µM | 89.3 µM | > 100 µM | > 100 µM | > 100 µM | 93.8 µM | > 100 µM |
| CC(CC=O)Nc1nn2c(=O)c3ccccc3nc2s1 (configuration not stated) | > 100 µM | > 100 µM | > 100 µM | > 100 µM | > 100 µM | > 100 µM | > 100 µM | > 100 µM | > 100 µM | > 100 µM | > 100 µM |
| Cc1cc(C)nc(NS(=O)(=O)c2ccc(Nc3c4ccccc4nc4ccc(C(=O)Nc5ccc(S(=O)(=O)N=C(N)N)cc5)cc34)cc2)n1 | > 100 µM | > 100 µM | > 100 µM | > 100 µM | > 100 µM | > 100 µM | > 100 µM | > 100 µM | > 100 µM | > 100 µM | > 100 µM |
| COc1cccc(N=NN2CCCC2)c1 | > 100 µM | > 100 µM | > 100 µM | > 100 µM | > 100 µM | > 100 µM | – | > 100 µM | > 100 µM | > 100 µM | > 100 µM |
| O=C1C=C/C(=C/[C@H]2SSC=C[C@]23C=CC(=O)C3)C1 | > 53.1 µM | 27.7 µM | 28.4 µM | > 84.9 µM | > 100 µM | 29.9 µM | 42 µM | > 100 µM | > 100 µM | > 64.7 µM | 58.7 µM |
| CCOC(=O)c1cc2c3c(cc(OC)c2[nH]1)N(C(=O)OCC)CC3 | > 100 µM | – | > 100 µM | > 100 µM | > 100 µM | > 100 µM | > 100 µM | > 100 µM | > 100 µM | – | > 100 µM |
| N#CC(NNC(=O)c1ccccc1O)c1c(O)ccc2ccccc12 (configuration not stated) | 43.4 µM | 18.7 µM | 21.1 µM | > 55.1 µM | 43 µM | 29.9 µM | > 100 µM | > 100 µM | 48.3 µM | 36.5 µM | 9.32 µM |
| CC1CCCN1CCCOC(=O)c1ccc(OC2C=CCCC2)cc1 (configuration not stated) | > 100 µM | 54 µM | > 100 µM | 78.9 µM | 68.2 µM | 52 µM | > 100 µM | > 100 µM | 34.6 µM | 88.8 µM | > 100 µM |
| COc1ccc(N=Nc2c(N)nn3c(SC)c(C#N)c(N)nc23)cc1 | 27.1 µM | 36.8 µM | 34.8 µM | 21.5 µM | 6.28 µM | 19.5 µM | 18.8 µM | 37.6 µM | 40.6 µM | 33.6 µM | 20.4 µM |
| CCOC(=O)c1cn(CC)c2ccc3c(c2c1=O)S(=O)(=O)C=C3 | > 100 µM | > 100 µM | > 100 µM | > 100 µM | > 100 µM | > 100 µM | > 100 µM | > 100 µM | > 100 µM | > 100 µM | > 100 µM |
| COC(=O)C(=O)C(C(=O)C(=O)Nc1ccc(C)c(C)c1)c1nc2ccc([N+](=O)[O-])cc2[nH]c1=O (configuration not stated) | > 100 µM | > 100 µM | > 100 µM | > 100 µM | > 100 µM | > 100 µM | > 100 µM | > 100 µM | > 100 µM | > 100 µM | > 100 µM |
| CC(=O)O[C@H]1C(=O)[C@@]2(C)[C@H]([C@H](OC(=O)c3ccco3)[C@]3(O)C[C@H](OC(=O)[C@H](O)[C@@H](NC(=O)c4ccccc4)c4ccccc4)C(C)=C1C3(C)C)[C@]1(OC(C)=O)CO[C@@H]1C[C@@H]2O | 0.0591 µM | – | > 25 µM | > 23.5 µM | 0.131 µM | 3.76 µM | > 25 µM | > 25 µM | 3.87 µM | > 25 µM | > 25 µM |
| CSc1nc[nH]c1C(N)=S | > 100 µM | > 100 µM | > 100 µM | > 100 µM | > 100 µM | > 100 µM | > 100 µM | > 100 µM | > 100 µM | > 100 µM | > 100 µM |
| Cc1nc(Cc2n[nH]c(C)n2)n[nH]1 | > 100 µM | > 100 µM | > 100 µM | > 100 µM | > 100 µM | > 100 µM | – | > 100 µM | > 100 µM | > 100 µM | > 100 µM |
| Cc1cc(=O)n2nc(CSc3nnc(Sc4cc(O)ccc4O)s3)sc2n1 | 32.7 µM | 46.2 µM | > 100 µM | > 100 µM | 61.4 µM | > 100 µM | > 100 µM | > 100 µM | > 100 µM | > 100 µM | > 100 µM |
| CC(C)(CN1CCCCC1)C(=O)CC(SCCS(=O)(=O)O)c1ccc(Cl)cc1 (configuration not stated) | 10.6 µM | 6.29 µM | 11.4 µM | 18.1 µM | 6.65 µM | 9.92 µM | – | 28.9 µM | 15.1 µM | 18.9 µM | 13.6 µM |
| COc1ccc2c(c1)CC[C@@H]1C2CC[C@]2(C)C(=C=CP(=O)(O)O)CCC12 (some centres not stated) | > 100 µM | > 100 µM | > 100 µM | > 100 µM | > 100 µM | > 100 µM | > 100 µM | > 100 µM | > 100 µM | > 100 µM | > 100 µM |
| O=C(NCc1ccccc1Cl)c1c(O)c2ccccc2[nH]c1=O | > 100 µM | > 100 µM | > 100 µM | > 100 µM | > 100 µM | 63.1 µM | > 100 µM | > 100 µM | 52.2 µM | > 100 µM | – |
